Assay results from patent US20230365590A1, “BIPHENYL COMPOUND AS IMMUNOMODULATOR, PREPARATION METHOD THEREFOR AND APPLICATION THEREOF” (SHENZHEN CHIPSCREEN BIOSCIENCES CO., LTD., priority 2020, published 2023).

What was measured:
[1] = target: PD-1/PD-L1 binding (recombinant human PD-L1-Fc fusion protein and His-PD-1 protein) (Homo sapiens (Human), UniProt Q9NZQ7); assay: In vitro inhibitory activity against PD-1/PD-L1 binding (HTRF); conditions: read-out: IC50 for inhibiting PD-1/PD-L1 binding in vitro
Sequence of PD-1/PD-L1 binding (recombinant human PD-L1-Fc fusion protein and His-PD-1 protein) (Q9NZQ7 19-239): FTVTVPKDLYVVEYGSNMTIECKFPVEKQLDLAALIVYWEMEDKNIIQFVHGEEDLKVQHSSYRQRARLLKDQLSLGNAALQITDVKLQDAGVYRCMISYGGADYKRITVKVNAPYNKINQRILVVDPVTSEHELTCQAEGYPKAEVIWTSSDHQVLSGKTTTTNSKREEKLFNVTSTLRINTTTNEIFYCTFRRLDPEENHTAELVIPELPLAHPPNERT
Excerpt: Homogeneous time resolved fluorescence method (HTRF): This method uses the recombinant human PD-L1 protein fused with hFc tag and the recombinant human PD-1 protein fused with His tag, which are interacting ligands and receptors. When the anti-hFc antibody containing chelated Eu tag and the anti-His antibody containing XL665 fluorescein tag are used to bind with the above two corresponding tags respectively and are excited by 320 nm laser, energy can be transferred from Eu element to XL665 fluorescein due to ligand receptor binding, and the XL665 fluorescein is excited to emit light with a wavelength of 665 nm. When an inhibitor for inhibiting interaction of PD-L1 and PD-1 is added, the binding of the ligand and the receptor is destroyed, causing a long distance between Eu and XL665. As a result, the energy cannot be transferred, and the XL665 fluorescein will not be excited.
(§1) Experimental Materials and Devices The recombinant human PD-1 protein with His tag (His-PD-1 protein, Cat #: 10377-H08H-50) and the recombinant human PD-L1-Fc fusion protein (PD-L1-Fc fusion protein, Cat #: 10084-H02H-100) were purchased from Sino Biological Inc., anti-hFc-Eu^3+ antibody and anti-His-XL665 antibody were purchased from Cisbio, and other related reagents such as a diluent buffer (diluent buffer 5 (Cat #: 62DL5DDC) and a detection buffer (PPI-European detection buffer, Cat #: 61DB9RDF) were purchased from Cisbio. Fluorescence detector Tecan (Spark 10M) was purchased from Tecan Company in Switzerland.
The experiment process was carried out according to the flow required in the operating manual of the test reagent. The process was as follows: • (1) Experiment preparation: A test compound was diluted to different concentration gradients with the dilution buffer (the highest final concentration in a 20 μL final reaction system was 10 μM). The His-PD-1 protein was diluted to 800 nM (the final concentration in the 20 final reaction system was 100 nM). The PD-L1-Fc fusion protein was diluted to 16 nM (the final concentration was 2 nM). […] All tests were conducted by use of multiple holes. • (4) The fluorescence detector Tecan (Spark 10M) was used to detect the fluorescence signal of each hole. The excitation wavelength was 320 nm, and the emission wavelengths for detection were 620 nm and 665 nm, respectively. The strength of PD-1/PD-L1 binding refers to a fluorescence signal ratio Em665/Em620. • (5) Calculation formula of binding inhibition rate of test compound: Inhibition rate (%)=[1−(fluorescence signal ratio of detected hole−fluorescence signal ratio of 100% inhibition negative control)]/(fluorescence signal ratio of 0% inhibition positive control−fluorescence signal ratio of 100% inhibition negative control)×100%. The 50% inhibition concentration (IC50) was calculated after the PD-1/PD-L1 binding inhibition rates of the test compound with different concentration gradients were calculated respectively.

[2] = target: CD80/PD-L1 binding (recombinant human His-CD80 protein and PD-L1-Fc fusion protein) (Homo sapiens (Human), UniProt Q9NZQ7); assay: In vitro inhibitory activity against CD80/PD-L1 binding (HTRF); conditions: read-out: IC50 for inhibiting CD80/PD-L1 binding in vitro
Sequence of CD80/PD-L1 binding (recombinant human His-CD80 protein and PD-L1-Fc fusion protein) (Q9NZQ7 19-239): as above
Excerpt: In addition to PD-1, PD-L1 can also play an immune inhibition role by binding to CD80. Similarly, in vitro CD80/PD-L1 binding or binding inhibition test can also be conducted by homogeneous time-resolved fluorescence (HTRF). When the anti-hFc-Eu^3+ antibody and the anti-His-XL665 antibody are used to bind to the hFC tag fused to PD-L1 and the His tag fused to CD80 respectively, and after excitation with 320 nm laser, energy can be transferred from Eu element to XL665 fluorescein due to the binding of PD-L1 and CD80 to excite the XL665 fluorescein to emit light. When an inhibitor for inhibiting interaction of PD-L1 and CD80 is added, the binding of PD-L1 and CD80 is destroyed, causing a long distance between Eu and XL665. As a result, the energy cannot be transferred, and the XL665 fluorescein will not be excited.
as §1, with “The” for “Experimental Materials and Devices The”, “CD80” for “PD-1”, “(His-CD80” for “(His-PD-1”, “10698-H08H-100)” for “10377-H08H-50)”, “(Diluent” for “(diluent”
The experiment process was carried out according to the flow required in the operating manual of the test reagent (Invitrogen). The process was as follows: • (1) Experiment preparation: A test compound was diluted to different concentration gradients with the dilution buffer (the highest final concentration in a 20 μL final reaction system was 10 μM). The His-CD80 protein was diluted to 800 nM (the final concentration in the 20 final reaction system was 100 nM). The PD-L1-Fc fusion protein was diluted to 16 nM (the final concentration was 2 nM). The anti-His-XL665 antibody and the anti-hFc-Eu^3+antibody were diluted 20 times and 100 times respectively with the detection buffer according to reagent requirements. • (2) First, 5 μL of the test compound, 2.5 μL of the His-CD80 fusion protein and 2.5 μL of the […] fusion protein solution were well mixed and incubated at room temperature for 15 min; then, 5 μL of the anti-His-XL665 antibody and 5 μL of the anti-hFc-Eu^3+antibody were added to the system and further incubated for 3 h before test. • (3) During the test reaction, control groups were set, including a 0% inhibitory positive control without adding the test compound and a 100% inhibitory negative control without adding the CD80 protein. All tests were conducted by use of multiple holes. • (4) The fluorescence detector Tecan (Spark 10M) was used to detect the fluorescence signal of each hole. The excitation wavelength was 320 nm, and the emission wavelengths for detection were 620 nm and 665 nm, respectively. The strength of CD80/PD-L1 binding refers to a fluorescence signal ratio Em665/Em620. • (5) Calculation formula of binding inhibition rate of test compound: Inhibition rate (%)=[1−(fluorescence signal ratio of detected hole−fluorescence signal ratio of 100% inhibition negative control)]/(fluorescence signal ratio of 0% inhibition positive control — fluorescence signal ratio of 100% inhibition negative control)×100%. The 50% inhibition concentration (IC50) was calculated after the CD80/PD-L1 binding inhibition rates of the test compound with different concentration gradients were calculated respectively.

Row | IC50 [1] [nM] | IC50 [2] [nM] | SMILES
1 | 0.88 | 0.41 | COCC12CCC(CCN3CCc4c(nc(C(=O)Nc5cccc(-c6cccc(NC(=O)c7nc8c(n7C)CCN(CCC79CCC(C(=O)O)(CC7)C9)C8)c6Cl)c5F)n4C)C3)(CC1)C2 [Compound I-9, 4-(2-(2-((2-chloro-2′-fluoro-3′-(5-(2-(4-(methoxymethyl)bicyclo[2.2.1]heptan-1-yl)ethyl)-1-methyl-4,5,6,7-tetrahydro-1H-imidazo [4,5-c]pyridine-2-carboxamido)-[1,1′-biphenyl]-3-yl)carbamoyl)-1-methyl-1,4,6,7-tetrahydro-5H-imidazo[4,5-c]pyridin-5-yl)ethyl)bicyclo[2.2.1]heptane-1-carboxylic acid]
2 | 3.7 | 3.4 | COCC12CCC(CN3CCc4c(nc(C(=O)Nc5cccc(-c6cccc(NC(=O)c7nc8c(n7C)CCN(CCC79CCC(C(=O)O)(CC7)C9)C8)c6Cl)c5Cl)n4C)C3)(CC1)C2 [Compound I-8, 4-(2-(2-((2,2′-dichloro-3′-(5-((4-(methoxymethyl)bicyclo[2.2.1]heptan-1-yl)methyl)-1-methyl-4,5,6,7-tetrahydro-1H-imidazo[4,5-c]pyridine-2-carboxamido)-[1, 1′-biphenyl]-3-yl)carbamoyl)-1-methyl-1,4,6,7-tetrahydro-5H-imidazo[4,5-c]pyridin-5-yl)ethyl)bicyclo[2.2.1]heptane-1-carboxylic acid]
3 | 1.32 | 0.79 | COCC12CCC(CCCN3CCc4c(nc(C(=O)Nc5cccc(-c6cccc(NC(=O)c7nc8c(n7C)CCN(CCC79CCC(C(=O)O)(CC7)C9)C8)c6Cl)c5C)n4C)C3)(CC1)C2 [Compound I-2, 4-(2-(2-((2-chloro-3′-(5-(3-(4-(methoxymethyl)bicyclo[2.2.1]heptan-1-yl)propyl)-1-methyl-4,5,6,7-tetrahydro-1H-imidazo[4,5-c]pyridine-2-carboxamido)-2′-methyl-[1,1′-biphenyl]-3-yl)carbamoyl)-1-methyl-1,4,6,7-tetrahydro-5H-imidazo[4,5-c]pyridin-5-yl)ethyl)bicyclo[2.2.1]heptane-1-carboxylic acid]
4 | 2.46 | 1.64 | COCC12CCC(CCN3CCc4c(nc(C(=O)Nc5cccc(-c6cccc(NC(=O)c7nc8c(n7C)CCN(CC79CCC(C(=O)O)(CC7)C9)C8)c6Cl)c5C)n4C)C3)(CC1)C2 [Compound I-12, 4-((2-((2-chloro-3′-(5-(2-(4-(methoxymethyl)bicyclo[2.2.1]heptan-1-yl)ethyl)-1-methyl-4,5,6,7-tetrahydro-1H-imidazo[4,5-c]pyridine-2-carboxamido)-2′-methyl-[1,1′-biphenyl]-3-yl)carbamoyl)-1-methyl-1,4,6,7-tetrahydro-5H-imidazo[4,5-c]pyridin-5-yl)methyl)bicyclo[2.2.1]heptane-1-carboxylic acid]
5 | 2.35 | 2.16 | COCC12CCC(CCN3CCc4c(nc(C(=O)Nc5cccc(-c6cccc(NC(=O)c7nc8c(n7C)CCN(CCC79CCC(C(=O)O)(CC7)C9)C8)c6Cl)c5C)n4C)C3)(CC1)C2 [Compound I-5, 4-(2-(2-((2-chloro-3′-(5-(2-(4-(methoxymethyl)bicyclo[2.2.1]heptan-1-yl)ethyl)-1-methyl-4,5,6,7-tetrahydro-1H-imidazo[4,5-c]pyridine-2-carboxamido)-2′-methyl-[1,1′-biphenyl]-3-yl)carbamoyl)-1-methyl-1,4,6,7-tetrahydro-5H-imidazo [4,5-c]pyridin-5-yl)ethyl)bicyclo[2.2.1]heptane-1-carboxylic acid]
6 | 1.89 | 2.78 | COCC12CCC(CCN3CCc4c(nc(C(=O)Nc5cccc(-c6cccc(NC(=O)c7nc8c(n7C)CCN(CCC79CCC(C(=O)O)(CC7)C9)C8)c6C)c5Cl)n4C)C3)(CC1)C2 [Compound I-4, 4-(2-(2-((2′-chloro-3′-(5-(2-(4-(methoxymethyl)bicyclo[2. 2.1]heptan-1-yl)ethyl)-1-methyl-4,5,6,7-tetrahydro-1H-imidazo[4,5-c]pyridine-2-carboxamido)-2-methyl-[1 ,1′-biphenyl]-3-yl)carbamoyl)-1-methyl-1,4,6,7-tetrahydro-5H-imidazo[4,5-c]pyridin-5-yl)ethyl)bicyclo[2.2.1]heptane-1-carboxylic acid]
7 | 1.47 | 0.84 | COCC12CCC(CCCN3CCc4c(nc(C(=O)Nc5cccc(-c6cccc(NC(=O)c7nc8c(n7C)CCN(CCC79CCC(C(=O)O)(CC7)C9)C8)c6C)c5Cl)n4C)C3)(CC1)C2 [Compound I-1, 4-(2-(2-((2′-chloro-3′-(5-(3-(4-(methoxymethyl)bicyclo[2. 2.1]heptan-1-yl)propyl)-1-methyl-4,5,6,7-tetrahydro-1H-imidazo[4,5-c]pyridine-2-carboxamido) -2-methyl-[1,1′-biphenyl]-3-yl)carbamoyl)-1-methyl-1,4,6,7-tetrahydro-5H-imidazo[4,5-c]pyridin-5-yl)ethyl)bicyclo[2.2.1]heptane-1-carboxylic acid]
8 | 4.62 | 5.53 | Cn1c(C(=O)Nc2cccc(-c3cccc(NC(=O)c4nc5c(n4C)CCN(CC46CCC(C(=O)O)(CC4)C6)C5)c3Cl)c2Cl)nc2c1CCN(CCO)C2 [Example 180]
9 |  | 0.86 | COCC12CCC(CCN3CCc4c(nc(C(=O)Nc5cccc(-c6cccc(NC(=O)c7nc8c(n7C)CCN(CCC79CCC(C(=O)O)(CC7)C9)C8)c6Cl)c5Cl)n4C)C3)(CC1)C2 [Compound I-6, 4-(2-(2-((2,2′-dichloro-3′-(5-(2-(4-(methoxymethyl)bicyclo[2.2.1]heptan-1-yl)ethyl)-1-methyl-4,5,6,7-tetrahydro-1H-imidazo[4,5-c]pyridine-2-carboxamido)-[1, 1′-biphenyl]-3-yl)carbamoyl)-1-methyl-1,4,6,7-tetrahydro-5H-imidazo[4,5-c]pyridin-5-yl)ethyl)bicyclo[2.2.1]heptane-1-carboxylic acid]
